These results are taken from patent publication US10759783B2, “Biaryl inhibitors of Bruton'S tyrosine kinase” (BIOGEN MA INC., priority 2013, dated 2020).

Assay [1] addresses T1, BTK enzyme (Homo sapiens, UniProt Q06187).
T1 construct: purchased Upstate 14-552
As to the kind of experiment: In vitro BTK kinase assay: BTK-POLYGAT-LS assay. Type of assay: biochemical. The conditions noted are these: ATP 10 μM, read-out: IC50 (10uMATP). In outline:
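Human BTK activity was measured with final 10 μM ATP and 100 nM polyGAT substrate in pH 7.5 Tris buffer with 10 mM MgCl2, DTT, Triton X-100 and casein.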

The target of assay [2] is BTK (phospho-BTK) in human whole blood (Homo sapiens, UniProt Q06187). Briefly: In vitro PD assay in human whole blood (pBTK assay).
Chain of BTK (phospho-BTK) in human whole blood (Q06187 whole entry): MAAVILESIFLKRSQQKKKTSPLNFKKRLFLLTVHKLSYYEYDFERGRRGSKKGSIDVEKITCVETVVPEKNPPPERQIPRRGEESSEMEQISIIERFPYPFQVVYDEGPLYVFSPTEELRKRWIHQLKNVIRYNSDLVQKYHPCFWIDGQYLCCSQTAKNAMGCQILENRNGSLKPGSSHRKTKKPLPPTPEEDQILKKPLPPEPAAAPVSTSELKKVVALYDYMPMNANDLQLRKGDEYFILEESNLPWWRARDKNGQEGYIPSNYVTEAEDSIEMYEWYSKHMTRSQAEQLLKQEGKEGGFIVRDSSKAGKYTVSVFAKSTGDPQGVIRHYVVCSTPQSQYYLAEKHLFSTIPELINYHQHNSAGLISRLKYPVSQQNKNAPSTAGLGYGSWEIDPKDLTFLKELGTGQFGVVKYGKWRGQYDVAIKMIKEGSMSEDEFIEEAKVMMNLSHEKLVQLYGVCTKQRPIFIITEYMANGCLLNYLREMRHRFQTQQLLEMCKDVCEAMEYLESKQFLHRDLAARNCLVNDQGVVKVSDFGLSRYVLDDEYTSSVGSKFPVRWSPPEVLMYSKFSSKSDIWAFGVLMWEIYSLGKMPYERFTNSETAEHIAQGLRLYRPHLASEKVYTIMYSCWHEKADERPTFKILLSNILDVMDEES

Structures are written as SMILES. pIC50: −log10 of the molar value.

T1 sequence (Q06187 whole entry): as above

Broadly, the pIC50 is the IC50 on a negative log10 scale, so that one unit is a factor of ten. For the compound `Cc1cc(-c2cc(Nc3cc4n(n3)CCN(C)C4=O)ncn2)ccc1CNC(=O)c1cnc(C(C)(C)C)s1` [Example I-278, 2-tert-butyl-N-[[2-methyl-4-[6-[(5-methyl-4-oxo-6,7-dihydropyrazolo[1,5-a]pyrazin-2-yl)amino]pyrimidin-4-yl]phenyl]methyl]thiazole-5-carboxamide], the results for the pIC50 in assay [1] and in assay [2] were over 8.00 and over 6.30, respectively.

Turning to `Cc1cc(-c2ccnc(Nc3cnn(C4CCN(C)CC4)c3)n2)ccc1CNC(=O)c1cnc(C(C)(C)C)s1` [Example I-46, 2-(tert-butyl)-N-(2-methyl-4-(2-((1-(1-methylpiperidin-4-yl)-1H-pyrazol-4-yl)amino)pyrimidin-4-yl)benzyl)thiazole-5-carboxamide], the values for the pIC50 in assay [1] and in assay [2] were over 8.00 and over 6.30, respectively.

On to `Cc1cc(-c2ccnc(Nc3cnn(C4CCN(S(C)(=O)=O)CC4)c3)n2)ccc1CNC(=O)c1cnc(C(C)(C)C)s1` [Example I-47, 2-(tert-butyl)-N-(2-methyl-4-(2-((1-(1-(methylsulfonyl)piperidin-4-yl)-1H-pyrazol-4-yl)amino)pyrimidin-4-yl)benzyl)thiazole-5-carboxamide], for which the negative-log IC50 (pIC50) in assay [1] was over 8.00; in assay [2] it was 5.82 to 6.30.

In the case of `Cc1cc(-c2ccnc(Nc3cnn(C4CC4)c3)n2)ccc1CNC(=O)c1cnn(C(C)(C)C)c1` [Example I-260, 1-tert-butyl-N-[[4-[2-[(1-cyclopropylpyrazol-4-yl)amino]pyrimidin-4-yl]-2-methyl-phenyl]methyl]pyrazole-4-carboxamide], the pIC50 in assay [1] was over 8.00; in assay [2], over 6.30.

As to `Cc1cc(-c2ccnc(Nc3cnn(C4CCN(C)CC4)c3)n2)ccc1CNC(=O)c1cnn(C(C)(C)C)c1` [Example I-197, 1-(tert-butyl)-N-(2-methyl-4-(2-((1-(1-methylpiperidin-4-yl)-1H-pyrazol-4-yl)amino)pyrimidin-4-yl)benzyl)-1H-pyrazole-4-carboxamide], the pIC50 in assay [1] was over 8.00; in assay [2] it was over 6.30.

For the compound `Cc1cc(-c2ccnc(Nc3cnn(C4CCC(C(=O)O)CC4)c3)n2)ccc1CNC(=O)c1cnn(C(C)(C)C)c1` (stereo in doubt) [Example I-195, cis-4-(4-((4-(4-((1-(tert-butyl)-1H-pyrazole-4-carboxamido)methyl)-3-methylphenyl)pyrimidin-2-yl)amino)-1H-pyrazol-1-yl)cyclohexanecarboxylic acid], the pIC50 in assay [1] was over 8.00; in assay [2] it was over 6.30.

As to `Cc1cc(-c2cc(Nc3ccn(C)n3)ncn2)ccc1CNC(=O)c1cnc(C(C)(C)C)s1` [Example I-66, 2-(tert-butyl)-N-(2-methyl-4-(6-((1-methyl-1H-pyrazol-3-yl)amino)pyrimidin-4-yl)benzyl)thiazole-5-carboxamide], the pIC50 in assay [1] is over 8.00; in assay [2], 5.82 to 6.30.

Turning to `Cc1cc(-c2cc(Nc3cc4n(n3)CCNC4)ncn2)ccc1CNC(=O)c1cnn(C(C)(C)C)c1` [Example I-231, 1-(tert-butyl)-N-(2-methyl-4-(6-((4,5,6,7-tetrahydropyrazolo[1,5-a]pyrazin-2-yl)amino)-pyrimidin-4-yl)benzyl)-1H-pyrazole-4-carboxamide], the results for the pIC50 in assay [1] and in assay [2] were over 8.00 and over 6.30, respectively.

With `CC(C)(O)Cn1cc(Nc2nccc(-c3ccc4c(c3)CCCCC4NC(=O)N3CC(OC(C)(C)C)C3)n2)cn1` (stereo not drawn) [Example I-337, 3-tert-butoxy-N-[2-[2-[[1-(2-hydroxy-2-methyl-propyl)pyrazol-4-yl]amino]pyrimidin-4-yl]-6,7,8,9-tetrahydro-5H-benzo[7]annulen-5-yl]azetidine-1-carboxamide], the negative-log IC50 (pIC50) in assay [1] was over 8.00; in assay [2], over 6.30.

Consider `Cc1cc(-c2cc(Nc3cc4n(n3)CC(=O)N(C)C4)ncn2)ccc1CNC(=O)N1CCC(C(C)(C)C)C1` (stereo not drawn) [Example I-281, 3-tert-butyl-N-[[2-methyl-4-[6-[(5-methyl-6-oxo-4,7-dihydropyrazolo[1,5-a]pyrazin-2-yl)amino]pyrimidin-4-yl]phenyl]methyl]pyrrolidine-1-carboxamide], for which the values for the pIC50 in assay [1] and in assay [2] were over 8.00 and over 6.30, respectively.

As to `COCCn1cc(Nc2nccc(-c3ccc4c(c3)CCCCC4NC(=O)N3CC(OC(C)C)C3)n2)cn1` (stereo not drawn) [Example I-171, 3-isopropoxy-N-(2-(2-((1-(2-methoxyethyl)-1H-pyrazol-4-yl)amino)pyrimidin-4-yl)-6,7,8,9-tetrahydro-5H-benzo[7]annulen-5-yl)azetidine-1-carboxamide], the pIC50 is over 8.00 in assay [1] and over 6.30 in assay [2].

In the case of `Cc1cc(-c2ccnc(Nc3cnn(C)c3)n2)ccc1CN1Cc2nc(C(C)(C)C)sc2C1=O` [Example I-12, 2-(tert-butyl)-5-(2-methyl-4-(2-((1-methyl-1H-pyrazol-4-yl)amino)pyrimidin-4-yl)benzyl)-4H-pyrrolo[3,4-d]thiazol-6(5H)-one], the pIC50 in assay [1] is over 8.00; in assay [2], over 6.30.

On to `Cn1cc(Nc2nccc(-c3ccc(CNC(=O)N4CC(OC(C)(C)C)C4)c(C(F)(F)F)c3)n2)cn1` [Example I-198, 3-(tert-butoxy)-N-(4-(2-((1-methyl-1H-pyrazol-4-yl)amino)pyrimidin-4-yl)-2-(trifluoromethyl)benzyl)azetidine-1-carboxamide], for which the pIC50 in assay [1] was over 8.00; in assay [2], over 6.30.

Turning to `Cc1cc(-c2cc(Nc3cc4n(n3)CC(=O)N(C)C4)ncn2)ccc1CNC(=O)N1CC(OC(C)(C)C)C1` [Example I-239, 3-(tert-butoxy)-N-(2-methyl-4-(6-((5-methyl-6-oxo-4,5,6,7-tetrahydropyrazolo-[1,5-a]pyrazin-2-yl)amino)pyrimidin-4-yl)benzyl) azetidine-1-carboxamide], the pIC50 in assay [1] was over 8.00; in assay [2] it was over 6.30.

`Cc1cc(-c2ccnc(Nc3cnn(C4CCN(C)CC4)c3)n2)ccc1CNC(=O)N1CC(OC(C)C)C1` [Example I-219, 3-isopropoxy-N-(2-methyl-4-(2-((1-(1-methylpiperidin-4-yl)-1H-pyrazol-4-yl)amino)pyrimidin-4-yl)benzyl)azetidine-1-carboxamide]: the negative-log IC50 (pIC50) in assay [1] was over 8.00; in assay [2], over 6.30.

Take `Cc1cc(-c2cc(Nc3cc4c(cn3)CN(CCO)CC4)ncn2)ccc1CNC(=O)c1cnc(C(C)(C)C)s1` [Example I-268, 2-tert-butyl-N-[[4-[6-[[7-(2-hydroxyethyl)-6,8-dihydro-5H-2,7-naphthyridin-3-yl]amino]pyrimidin-4-yl]-2-methyl-phenyl]methyl]thiazole-5-carboxamide]: the pIC50 in assay [1] is over 8.00; in assay [2], over 6.30.

With `CN1CCn2nc(Nc3cc(-c4ccc(CNC(=O)c5cnn(C(C)(C)C)c5)c(Cl)c4)ncn3)cc2C1` [Example I-240, 1-(tert-butyl)-N-(2-chloro-4-(6-((5-methyl-4,5,6,7-tetrahydropyrazolo[1,5-a]-pyrazin-2-yl)amino)pyrimidin-4-yl)benzyl)-1H-pyrazole-4-carboxamide], the pIC50 in assay [1] was over 8.00; in assay [2] it was over 6.30.

In the case of `Cc1cc(-c2ccnc(Nc3cnn(C)c3)n2)ccc1CNC(=O)N1CC(OCCF)C1` [Example I-307, 3-(2-fluoroethoxy)-N-[[2-methyl-4-[2-[(1-methylpyrazol-4-yl)amino]pyrimidin-4-yl]phenyl]methyl]azetidine-1-carboxamide], the results for the negative logarithm of the IC50 (pIC50) in assay [1] and in assay [2] were over 8.00 and over 6.30, respectively.

`Cc1cc(-c2ccnc(Nc3cnn(C[C@H](N)C(=O)O)c3)n2)ccc1CNC(=O)c1cnc(C(C)(C)C)s1` [Example I-130, (S)-2-amino-3-(4-((4-(4-((2-(tert-butyl)thiazole-5-carboxamido)methyl)-3-methylphenyl)pyrimidin-2-yl)amino)-1H-pyrazol-1-yl)propanoic acid]: the pIC50 in assay [1] is over 8.00; in assay [2] it was over 6.30.

Turning to `CC(C)C1CCN(C(=O)NC2CCCCc3cc(-c4ccnc(Nc5cnn([C@@H]6CCOC6)c5)n4)ccc32)C1` (stereo partly drawn) [Example I-344, 3-isopropyl-N-[2-[2-[[1-[(3R)-tetrahydrofuran-3-yl]pyrazol-4-yl]amino]pyrimidin-4-yl]-6,7,8,9-tetrahydro-5H-benzo[7]annulen-5-yl]pyrrolidine-1-carboxamide], the pIC50 in assay [1] was over 8.00; in assay [2], over 6.30.

As to `Cc1cc(-c2cc(Nc3cc4n(n3)CCCN(CCO)C4)ncn2)ccc1CNC(=O)c1cnn(C(C)(C)C)c1` [Example I-235, 1-(tert-butyl)-N-(4-(6-((5-(2-hydroxyethyl)-5,6,7,8-tetrahydro-4H-pyrazolo[1,5-a][1,4]diazepin-2-yl)amino)pyrimidin-4-yl)-2-methylbenzyl)-1H-pyrazole-4-carboxamide], the values for the pIC50 in assay [1] and in assay [2] were over 8.00 and over 6.30, respectively.

As to `Cn1cc(Nc2nccc(-c3ccc4c(c3)CCNCC4NC(=O)N3CC(OC(C)(C)C)C3)n2)cn1` (stereo not drawn) [Example I-248, 3-(tert-butoxy)-N-(7-(2-((1-methyl-1H-pyrazol-4-yl)amino)pyrimidin-4-yl)-2,3,4,5-tetrahydro-H-benzo[d]azepin-1-yl)azetidine-1-carboxamide], the pIC50 in assay [1] is over 8.00; in assay [2], over 6.30.

As for `Cc1cc(-c2ccnc(Nc3cnn(C[C@H](N)CO)c3)n2)ccc1CNC(=O)c1cnc(C(C)(C)C)s1` [Example I-131, (S)—N-(4-(2-((1-(2-amino-3-hydroxypropyl)-1H-pyrazol-4-yl)amino)pyrimidin-4-yl)-2-methylbenzyl)-2-(tert-butyl)thiazole-5-carboxamide], the negative-log IC50 (pIC50) in assay [1] is over 8.00; in assay [2], 5.82 to 6.30.

Take `Cc1cc(-c2ccnc(Nc3cnn(C)c3)n2)ccc1CNC(=O)c1ccn(C(C)(C)C)n1` [Example I-252, 1-tert-butyl-N-[[2-methyl-4-[2-[(1-methylpyrazol-4-yl)amino]pyrimidin-4-yl]phenyl]methyl]pyrazole-3-carboxamide]: the pIC50 in assay [1] is over 8.00; in assay [2], over 6.30.
